Results published in US6761884B1, “Vectors including foreign genes and negative selective markers” (The United States of America as represented by the …, priority 1991, dated 2004).

Key:
untransduced WP4 cells = assay: Ganciclovir killing of untransduced WP4 cells, methylene blue staining; assay type: cell-based, murine; details: 24-well plate, ganciclovir 0.01-100 uM, stained at 5 to 7 days
Description: This example employs a clone (WP4) (Asher et al., J. Inmunol, Vol. 146, pg. 3227 (1991)) of a murine tumor cell line MCA205 (Wexler et al., J. Natl. Canc. Inst., Vol. 63, pg. 1393 (1979)) for assessing the utility of the HSV-TK gene in a “suicide” system.
Transduced “selected” cells are then plated in 24-well tissue culture plate at 1-2.5×10^4 cells per well. After 24 hrs. of culture, ganciclovir is added in concentrations ranging from 0.01-100 uM, the cells are monitored for growth and all wells are stained in methylene blue when the control wells (no ganciclovir added) are confluent (at 5 to 7 days). Complete killing of transduced selected cells is observed at concentrations from 0.1 to 1.0 uM of ganciclovir, while untransduced cells are killed at concentrations of 100 uM or greater.

[1] = tested on: untransduced WP4 tumor cells; assay: Subcutaneous tumors from untransduced WP4 cells in mice, ganciclovir treatment; assay type: in vivo, C57BL/6 or BNX mice; details: in 40-45 days, with or without ganciclovir administration (125-150 mg/kg i.p. twice daily for 5 days)
Description: (§1) WP4 tumor cells form tumors in C57BL/6 or BNX mice when injected subcutaneously. The number of cells required for tumor formation will vary depending of the strain of mouse used. C57BL/6 mice require 5×10^6-1×10^7 cells for tumor formation in 10-14 days. BNX mice require 1-5×10^4 cells for tumor formation in 10-14 days. Tumor cells are suspended in PBS and injected subcutaneously into the hind flank in a 0.5 ml volume. Five to ten days after tumor inoculation, ganciclovir is administered intraperitoneally twice daily for 5 days. A 2-5 mg/ml solution of ganciclovir prepared in serum-free medium (RPMI 1640, DMEM, or other) is used to achieve a dose of 125-150 mg/kg. Animals are monitored and tumor measurements made twice weekly.
(§2) At the time of ganciclovir administration, tumors are palpable, but unmeasurable. Tumors arising from untransduced WP4 cells reach a size of 2.0-2.5 cm^3 in 40-45 days with or without ganciclovir administration. Tumor cells containing the HSV-TK gene initially form palpable tumors then regress completely and become undetectable within 10-20 days after the start of ganciclovir treatment. Complete, long term tumor ablation is observed in 60-80% of mice having received selected cells plus ganciclovir therapy.

[2] = tested on: WP4 tumor cells containing the HSV-TK gene; assay: Subcutaneous tumors from WP4 cells containing the HSV-TK gene in mice, ganciclovir treatment; assay type: in vivo, C57BL/6 or BNX mice
Description: as §1, §2

With Nc1nc(O)c2ncn(COC(CO)CO)c2n1 [ganciclovir] as the molecule, how does the “Concentration at which untransduced cells are killed” value (untransduced WP4 cells) read?
The value was at least 100 µM.

And the “Tumor size reached by tumors arising from untransduced WP4 cells” value [1]?
Its value is 2.0-2.5 cm^3.

And the “Time after start of ganciclovir treatment by which tumors regress completely and become undetectable” value ([2]; 125-150 mg/kg intraperitoneally twice daily for 5 days, started 5-10 days after tumor inoculation)?
Its value is 10 to 20 days.

And the “Mice with complete, long term tumor ablation” value ([2]; mice having received selected cells plus ganciclovir therapy, 125-150 mg/kg i.p. twice daily for 5 days)?
Its value is 60-80%.
